The NIST ThermoML archive (doi:10.1016/j.jct.2006.07.004)

Test: xn = mol fraction of the nth substance listed
Conditions: 101 kPa, Liquid; for viscosity: Capillary tube (Ostwald / Ubbelohde) method; for mass density: Vibrating tube method

ClC(Cl)Cl [trichloromethane] + CC(=O)CC(C)C
Conditions | mass density, 283.15 K [kg/m3] | mass density, 293.15 K [kg/m3] | mass density, 303.15 K [kg/m3] | mass density, 313.15 K [kg/m3] | viscosity, 283.15 K [mPa·s] | viscosity, 293.15 K [mPa·s] | viscosity, 303.15 K [mPa·s] | viscosity, 313.15 K [mPa·s]
x1 = 0.0847 | 849 | 839.4 | 829.9 | 820 | 0.685 | 0.598 | 0.531 | 0.472
x1 = 0.1841 | 898.2 | 888.1 | 878 | 867.5 | 0.719 | 0.63 | 0.558 | 0.493
x1 = 0.276 | 947.2 | 936.6 | 925.8 | 914.9 | 0.755 | 0.659 | 0.577 | 0.513
x1 = 0.3529 | 991.1 | 980.1 | 968.7 | 957.1 | 0.78 | 0.678 | 0.596 | 0.526
x1 = 0.4467 | 1048.8 | 1037 | 1025 | 1012.6 | 0.808 | 0.696 | 0.616 | 0.542
x1 = 0.506 | 1087.7 | 1075.3 | 1062.8 | 1050 | 0.812 | 0.703 | 0.62 | 0.551
x1 = 0.6079 | 1159.3 | 1146 | 1132.5 | 1118.7 | 0.814 | 0.704 | 0.623 | 0.557
x1 = 0.6959 | 1226.7 | 1212.4 | 1197.9 | 1183.2 | 0.798 | 0.696 | 0.619 | 0.554
x1 = 0.8213 | 1332.6 | 1316.7 | 1300.6 | 1284.1 | 0.746 | 0.664 | 0.592 | 0.533
x1 = 0.9067 | 1412.3 | 1395 | 1377.7 | 1359.8 | 0.689 | 0.629 | 0.56 | 0.503
x1 = 1 | 1507.3 | 1488.4 | 1469.4 | 1450 | 0.629 | 0.573 | 0.516 | 0.468
